Source: US12121510B2 (Cedars-Sinai Medical Center, priority 2016, dated 2024)
Read-outs that look alike come from different tables or passages of the source.

Experiments:
Namalwa = assay: Lymphoma cell growth IC50 (MTT); assay type: cell-based, human
From the text: (§1) Exemplary Embodiments are generally performed as follows, unless otherwise noted. Simvastatin is purchased from Ark Pharm, Inc. (Arlington Heights, IL). Cisplatin (CIS) is purchased from MedKoo Biosciences, Inc. (Chapel Hill, NC). Dihydroartemisinin is purchased from TCI America (Portland, OR). All other chemicals and reagents are purchased from standard sources such as Sigma-Aldrich and/or VWR and are of highest quality available. Puromycin dihydrochloride was purchased from Alfa Aesar (Tewksbury, MA). Deionized water ([…]) used for making solutions is obtained from Milli-Q Direct Ultrapure Water System from Millipore (Billerica, MA, USA). All intermediates are characterized by 1H NMR and mass analysis and the purity of compounds are analyzed by HPLC. 1H NMR data are collected on Bruker 400 MHz spectrometers using standard parameters; chemical shifts are reported in ppm (δ) in reference to residual non-deuterated solvent. ESI mass spectroscopy analysis is performed using a Thermo Fisher LTQ Orbitrap Elite system. IC50 is the half maximal inhibitory concentration and determined is determined by crystal violet assay unless otherwise noted.
(§2) The crystal violet assay is performed as follows, unless otherwise noted. Cell lines are supplemented with RPMI 1640 medium, 10% fetal bovine serum, 1% PenStrep, and placed in a humidified atmosphere containing 5% CO2 at 37° C. 5,000 cells/well renal cancer cells and 10,000 cells/well lymphoma cells are seeded in 96 well plates in 100 microliter medium/per well for 24 h. […] Renal cancer cells are fixed with 3.7% paraformaldehyde for 15 minutes and are stained with Crystal violet solution (0.5% in 25% methanol) for 30 minutes. After rinsing with water cell layers are dried and decolorized with Sorenson citrate with shaking for 20 minutes. Light absorption of the extracted supernatant is read at 595 nm. Lymphoma cell growth was evaluated using MTT and cells are incubated for 4 hours. 100 microliters of isopropanol is added, and the extracted supernatant fraction is read at absorption maximum of 595 nm.
(§3) Standard cell culture conditions typically are RPMI 1640 medium, 10% fetal bovine serum, 1% PenStrep, and are performed in a humidified atmosphere containing 5% CO2 at 37° C. Generally, 5,000 cells/well-10,000 cells/well are seeded in 96 well plates in 100 microliter medium/per well for 24 h, or as described in Example 16, unless otherwise noted. Certain cells require specialized media, growth factors, antibiotics, or culture condition adjustments, as will be apparent to a person of ordinary skill in the art.
as §2, with “Cell” for “The crystal violet assay is performed as follows, unless otherwise noted. Cell”, “cultured as follows. […]” for “supplemented with RPMI 1640 medium, 10% fetal bovine serum, 1% PenStrep, and placed in a humidified atmosphere containing 5% CO2 at 37° C.”, “is” for “was”

Caki-1 = assay: Renal cancer cell growth IC50 (crystal violet); assay type: cell-based, human; conditions: Caki-1, read-out: IC50
From the text: as §1, §2, §3
as §2, with “Cell” for “The crystal violet assay is performed as follows, unless otherwise noted. Cell”, “cultured as follows. […]” for “supplemented with RPMI 1640 medium, 10% fetal bovine serum, 1% PenStrep, and placed in a humidified atmosphere containing 5% CO2 at 37° C.”, “is” for “was”

C4-2B = assay: Cancer cell growth IC50 (crystal violet); assay type: cell-based
From the text: as §1, §2, §3

CTC 752-S-1 = assay: Circulating tumor cell growth IC50 / sensitization; assay type: cell-based, human
From the text: as §1, §3
Pancreatic cancer cells are cultured for 72 hours in vitro and exposed to the conventional chemotherapeutic drugs Gemcitabine (GEM) and Paclitaxel (PAC), known to inhibit pancreatic cancer growth in patients. GEM (or PAC) alone are compared to a combination with SIM, or a combination with DZ-SIM. […] Representative results are illustrated in the graphs in FIG. 3.
Cells are cultured according to their standard culturing conditions, and IC50s are determined as described herein-above.
Representative results of the determined IC50s are shown in the table below for the indicated cancer cells cultured in vitro, including CTCs (C752-S-1), B-Cell Lymphoma (Namalwa), prostate cancer cells (C4-2B), and renal cancer cells (Caki-1). The cells are cultured according to their standard culturing conditions, and IC50s are determined as described herein-above.

22Rv1 tumors = assay: Prostate tumor xenograft growth; assay type: in vivo, mice; conditions: IP twice per week, 37 days; SIM 1.1 mg/kg, DZ-SIM 5.5 mg/kg, DT 8 mg/kg
Procedure: A human prostate tumor xenograft model, 22Rv1 in immune compromised mice, is employed as follows. 1×10^6 freshly harvested cells of a cultured human prostate carcinoma cell line, 22Rv1, are inoculated s.q. in mice. Mice bearing 22Rv1 tumors (10 tumors/group) are randomized into 7 groups on day-1, and administered drugs by IP (intraperitoneally) at the next day (day-2), and subsequently twice per week, using the following drugs and dosages: a control/vehicle (V, i.e. no drug), DZ (5 μM or 3.9 mg/kg, calculated based on the body weight of mice which averaged 20 grams), SIM (5 μM or 1.1 mg/kg), DZ-SIM (5 μM or 5.5 mg/kg), docetaxel (DT, 8 mg/kg), SIM+DT (drug doses as indicated), and DZ-SIM+DT (drug doses as indicated). Administration is continued for a total of 37 days, and tumor volumes are measured at the indicated times (see FIG. 4). […] Thus therapeutically resistant prostate tumors can be rendered sensitive by DZ-SIM but not SIM.

[1] = Homo sapiens, Example 23, read-out: IC50
[2] = Homo sapiens, Example 23, CTC 752-S-1

Compound | IC50 (C4-2B; Example 22) [µM] | IC50 (Namalwa; [1]) [µM] | IC50 (Caki-1; Homo sapiens, Example 23) [µM] | IC50 (C4-2B; Example 23) [µM] | IC50 (CTC 752-S-1; [2]) [µM] | other results
C[C@@H]1CC[C@H]2[C@@H](C)C(=O)O[C@@H]3O[C@@]4(C)CC[C@@H]1[C@]32OO4 [ART, Artemisinin] | 0.657 | – | – | – | – | IC50 (Namalwa; Homo sapiens, Example 22, read-out: IC50): > 64 µM; IC50 (Caki-1; Homo sapiens, Example 22): > 64 µM; IC50 (CTC 752-S-1; Homo sapiens, Example 22, CTC 752-S-1, 3D cultured tumor spheroids): > 64 µM
CC(=O)O[C@@]12CO[C@@H]1C[C@H](O)[C@@]1(C)C(=O)[C@H](O)C3=C(C)[C@@H](OC(=O)[C@H](O)[C@@H](NC(=O)OC(C)(C)C)c4ccccc4)C[C@@](O)([C@@H](OC(=O)c4ccccc4)[C@H]21)C3(C)C [DT, Docetaxel] | – | – | – | – | – | Growth of 22Rv1 tumors in vivo (tumor volume) (22Rv1 tumors): ineffective
CC1CCC2C(C)C(OC(=O)CCCCCN3C(=CC=C4CCCC(C=CC5=[N+](CCCCS(=O)(=O)[O-])c6ccccc6C5(C)C)=C4Cl)C(C)(C)c4ccccc43)OC3OC4(C)CCC1C32OO4 (centres unmarked) [DZ-ART ester] | 0.291 | – | – | – | – | IC50 (Namalwa; Example 22, read-out: IC50): 1.3 µM; IC50 (Caki-1; Example 22): 0.703 µM; IC50 (CTC 752-S-1; Example 22, CTC 752-S-1, 3D cultured tumor spheroids): 1.64 µM
COc1cccc2c1C(=O)c1c(O)c3c(c(O)c1C2=O)C[C@@](O)(C(=O)CO)C[C@@H]3O[C@H]1C[C@H](NC(=O)CCCCCN2/C(=C/C=C3\CCCC(/C=C/C4=[N+](CCCCS(=O)(=O)[O-])c5ccccc5C4(C)C)=C3Cl)C(C)(C)c3ccccc32)[C@@H](O)[C@H](C)O1 [DZ-Doxorubicin] | – | 6.23 | > 64 | 0.206 | 3.41 | –
COc1ccc(C[C@H](NC(=O)CCCCCN2/C(=C/C=C3\CCCC(/C=C/C4=[N+](CCCCS(=O)(=O)[O-])c5ccccc5C4(C)C)=C3Cl)C(C)(C)c3ccccc32)C(=O)NC2C(CO)OC(n3cnc4c(N(C)C)ncnc43)C2O)cc1 (some centres unmarked) [DZ-Puromycin] | – | 22.4 | > 64 | 1.32 | 31.4 | –
